# Key:
# REPh = target: T1, REPh (Phrixothrix hirtus, UniProt Q9U4U7, L334R); assay: HDX-MS, apo vs ligand-bound; assay type: binding; settings: 5 mM ATP together with 5 mM luciferin (not separable), 50 mM MgCl2, pD 7.5, 25°C
# T1 construct: N-terminal His6-tag kept (no cleavage told), pET28b, E. coli BL21-CodonPlus-RIL; ~550 residues; higher oligomer by SEC (octamer in crystal)
# T1 sequence (Q9U4U7 1-546 L334R): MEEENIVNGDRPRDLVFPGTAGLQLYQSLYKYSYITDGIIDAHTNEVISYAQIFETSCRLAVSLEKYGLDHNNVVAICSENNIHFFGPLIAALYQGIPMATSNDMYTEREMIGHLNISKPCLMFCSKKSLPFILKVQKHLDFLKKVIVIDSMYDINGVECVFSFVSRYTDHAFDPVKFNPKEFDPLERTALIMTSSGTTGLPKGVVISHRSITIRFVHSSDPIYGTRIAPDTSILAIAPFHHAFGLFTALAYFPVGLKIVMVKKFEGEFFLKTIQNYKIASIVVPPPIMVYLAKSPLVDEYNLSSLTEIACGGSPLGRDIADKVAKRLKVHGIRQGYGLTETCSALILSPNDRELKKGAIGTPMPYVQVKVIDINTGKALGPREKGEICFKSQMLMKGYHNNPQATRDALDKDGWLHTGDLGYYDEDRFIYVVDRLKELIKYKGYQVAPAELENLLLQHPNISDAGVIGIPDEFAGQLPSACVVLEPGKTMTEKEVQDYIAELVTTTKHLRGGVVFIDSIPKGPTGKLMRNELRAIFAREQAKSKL
# GBAv = target: T2, GBAv (Amydetes, UniProt A0A3F2YLV6, R337L); assay: HDX-MS, apo vs ligand-bound; assay type: binding; settings: 5 mM ATP together with 5 mM luciferin (not separable), 50 mM MgCl2, pD 7.5, 25°C
# T2 construct: N-terminal His6-tag kept (no cleavage told), pET28b, E. coli BL21-CodonPlus-RIL; ~550 residues; monomer by SEC
# T2 sequence (A0A3F2YLV6 entry or part of it R337L): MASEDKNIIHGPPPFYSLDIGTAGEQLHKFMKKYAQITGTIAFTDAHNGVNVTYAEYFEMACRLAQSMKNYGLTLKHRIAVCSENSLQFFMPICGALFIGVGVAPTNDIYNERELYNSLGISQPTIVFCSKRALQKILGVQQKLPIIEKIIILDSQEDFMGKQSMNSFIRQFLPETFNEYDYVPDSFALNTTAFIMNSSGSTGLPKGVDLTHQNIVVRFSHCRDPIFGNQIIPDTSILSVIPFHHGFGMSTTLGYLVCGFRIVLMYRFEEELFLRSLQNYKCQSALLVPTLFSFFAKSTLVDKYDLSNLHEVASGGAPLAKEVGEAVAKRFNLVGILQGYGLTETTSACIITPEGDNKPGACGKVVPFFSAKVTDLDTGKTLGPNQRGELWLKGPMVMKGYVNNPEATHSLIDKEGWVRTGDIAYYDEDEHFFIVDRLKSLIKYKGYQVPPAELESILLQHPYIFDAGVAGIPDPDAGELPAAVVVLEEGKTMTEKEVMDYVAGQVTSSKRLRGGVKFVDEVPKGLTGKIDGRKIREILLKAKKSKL
compound,measurement,setting,value
Nc1ncnc2c1ncn2[C@@H]1O[C@H](COP(=O)(O)OP(=O)(O)OP(=O)(O)O)[C@@H](O)[C@H]1O [ATP],"HDX-MS, apo vs ligand-bound",REPh,"Upon substrate binding, deuterium uptake by peptides-2 and -3 decreased in all variants"
same,"HDX-MS, apo vs ligand-bound",GBAv,"Upon substrate binding, deuterium uptake by peptides-2 and -3 decreased in all variants"

# From paper PMC12550276 (Life Science Alliance, 2025)
